Patent US9540385B2, “Pyrrolopyrimidine compounds as kinase inhibitors” (Pharmacyclics LLC, priority 2012, dated 2017)

Experiments:
Format in all cases: biochemical
Settings in all cases: kinase assay by one of methods A, B or C
BTK = target: T1, BTK (Homo sapiens, UniProt Q06187); assay: Btk in vitro inhibitory activity / inhibition of a panel of kinases (TR-FRET, mobility shift or radiometric filter binding)
T1 construct: purified from insect cells as a full-length construct containing a N-terminal 6×-His tag; His6 (N); made in house; host or cells: insect cells (baculovirus, Sf21)
Protocol: (§1) Btk kinase activity is determined using a time-resolved fluorescence resonance energy transfer (TR-FRET) methodology. Measurements are performed in a reaction volume of 50 μL using 96-well assay plates. Kinase enzyme, inhibitor, ATP (at the Km for the kinase), and 1 μM peptide substrate (Biotin-AVLESEEELYSSARQ-NH2) are incubated in a reaction buffer composed of 20 mM Tris, 50 mM NaCl, MgCl2 (5-25 mM depending on the kinase), MnCl2 (0-10 mM), 1 mM DTT, 0.1 mM EDTA, 0.01% bovine serum albumin, 0.005% Tween-20, and 10% DMSO at pH 7.4 for one hour. The reaction is quenched by the addition of 1.2 equivalents of EDTA (relative to divalent cation) in 25 μL of 1× Lance buffer (Perkin-Elmer). Streptavidin-APC (Perkin-Elmer) and Eu-labeled p-Tyr100 antibody (Perkin-Elmer) in 1× Lance buffer are added in a 25 μL volume to give final concentrations of 100 nM and 2.5 nM, respectively, and the mixture is allowed to incubate for one hour. The TR-FRET signal is measured on a multimode plate reader with an excitation wavelength (λEx) of 330 nm and detection wavelengths (λEm) of 615 and 665 nm. Activity is determined by the ratio of the fluorescence at 665 nm to that at 615 nm. For each compound, enzyme activity is measured at various concentrations of compound. Negative control reactions are performed in the absence of inhibitor in replicates of six, and two no-enzyme controls are used to determine baseline fluorescence levels. Inhibition constants, Ki(app), ware obtained using the program BatchKi (Kuzmic et al. (2000), Anal. Biochem. 286:45-50). IC50s are obtained according to the equation: IC50={Ki(app)/(1+[ATP]/Km^ATP)}+[E]total/2;
(§2) For all kinases, [ATP]=Km^ATP, [Btk]total=0.5 nM and [Lck]total=6 nM.
(§3) Kinase activity is measured in vitro using electrophoretic mobility shift assay. The kinase reactions are assembled in a total volume of 25 μL in 384 well plates. The reactions comprise: BTK enzyme (1 nM, N-terminal His6-tagged, recombinant, full-length, human BTK purified from baculovirus Sf21 insect cell system), inhibitor, ATP ([…] the apparent Km for the kinase), fluorescently labeled peptide substrate (1 μM, FAM-GEEPLYWSFPAKKK-NH2) in a reaction buffer composed of 100 mM HEPES, pH7.5, 5 mM MgCl2 1 mM DTT, 0.1% bovine serum albumin, 0.01% Triton X-100, and 1% DMSO. The reaction is incubated for one hour and is quenched by the addition of 45 μL of termination buffer (100 mM HEPES, pH7.5, 0.01% Triton X-100, 30 mM EDTA). The terminated reactions are analyzed using 12 channel LabChip® 3000 microfluidic detection instrument (Caliper Life Sciences). The enzymatic phosphorylation of the peptide results in a change in net charge, enabling electrophoretic separation of product from substrate peptide. As substrate and product peptides are separated, two peaks of fluorescence are observed. Change in the relative fluorescence intensity of the substrate and product peaks is the parameter measured, reflecting enzyme activity. In the presence of an inhibitor, the ratio between product and substrate is altered: the signal of the product decreases, while the signal of the substrate increases.
(§4) Activity in each sample is determined as the product to sum ratio (PSR):P/(S+P), where P is the peak height of the product peptide and S is the peak height of the substrate peptide. For each compound, enzyme activity is measured at various concentrations (12 concentrations of compound spaced by 3× dilution intervals). Negative control samples (0%-inhibition in the absence of inhibitor) and positive control samples (100%-inhibition, in the presence of 20 mM EDTA) are assembled in replicates of four and are used to calculate %-inhibition values for each inhibitor at each concentration. Percent inhibition (Pinh) is determined using following equation: […]

EGFR = EGFR (Homo sapiens, UniProt P00533); assay: Inhibition of a panel of kinases: EGFR
Protocol: as §1, §2, §3, §4

LCK = LCK (Homo sapiens, UniProt P06239); assay: Inhibition of a panel of kinases: LCK
Protocol: as §1, §2, §3, §4

Chain of LCK (P06239 whole entry, species assumed): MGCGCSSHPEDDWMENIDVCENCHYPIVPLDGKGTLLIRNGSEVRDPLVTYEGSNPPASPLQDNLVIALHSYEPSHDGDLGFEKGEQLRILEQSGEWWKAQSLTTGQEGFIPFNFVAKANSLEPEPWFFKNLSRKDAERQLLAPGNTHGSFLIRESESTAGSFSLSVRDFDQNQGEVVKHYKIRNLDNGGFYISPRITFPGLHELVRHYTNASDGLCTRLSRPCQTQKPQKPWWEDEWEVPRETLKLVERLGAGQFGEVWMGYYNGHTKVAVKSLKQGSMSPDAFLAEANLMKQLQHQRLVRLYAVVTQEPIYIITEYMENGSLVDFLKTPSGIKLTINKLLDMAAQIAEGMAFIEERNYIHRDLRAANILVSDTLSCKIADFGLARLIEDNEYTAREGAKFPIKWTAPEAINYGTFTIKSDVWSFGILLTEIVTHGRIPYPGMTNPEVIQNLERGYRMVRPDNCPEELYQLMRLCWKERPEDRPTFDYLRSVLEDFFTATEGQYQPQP
T1 sequence (Q06187 whole entry): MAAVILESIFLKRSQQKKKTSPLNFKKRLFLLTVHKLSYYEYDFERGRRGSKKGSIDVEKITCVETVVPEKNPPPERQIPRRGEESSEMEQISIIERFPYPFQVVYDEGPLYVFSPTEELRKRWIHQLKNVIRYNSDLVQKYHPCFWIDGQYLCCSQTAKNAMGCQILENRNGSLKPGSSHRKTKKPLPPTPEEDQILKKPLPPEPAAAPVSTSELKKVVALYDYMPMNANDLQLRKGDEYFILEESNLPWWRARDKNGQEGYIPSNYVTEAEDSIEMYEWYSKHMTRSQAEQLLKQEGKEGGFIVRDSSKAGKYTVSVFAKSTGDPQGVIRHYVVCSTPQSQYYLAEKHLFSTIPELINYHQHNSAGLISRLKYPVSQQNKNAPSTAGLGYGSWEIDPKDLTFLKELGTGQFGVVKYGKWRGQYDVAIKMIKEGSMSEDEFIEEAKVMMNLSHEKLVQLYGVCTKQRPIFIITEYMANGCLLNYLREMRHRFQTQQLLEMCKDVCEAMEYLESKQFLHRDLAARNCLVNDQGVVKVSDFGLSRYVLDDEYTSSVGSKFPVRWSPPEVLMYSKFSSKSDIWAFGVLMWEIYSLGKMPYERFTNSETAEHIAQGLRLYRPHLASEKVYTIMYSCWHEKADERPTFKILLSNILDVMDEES
Chain of EGFR (P00533 25-1210, species assumed): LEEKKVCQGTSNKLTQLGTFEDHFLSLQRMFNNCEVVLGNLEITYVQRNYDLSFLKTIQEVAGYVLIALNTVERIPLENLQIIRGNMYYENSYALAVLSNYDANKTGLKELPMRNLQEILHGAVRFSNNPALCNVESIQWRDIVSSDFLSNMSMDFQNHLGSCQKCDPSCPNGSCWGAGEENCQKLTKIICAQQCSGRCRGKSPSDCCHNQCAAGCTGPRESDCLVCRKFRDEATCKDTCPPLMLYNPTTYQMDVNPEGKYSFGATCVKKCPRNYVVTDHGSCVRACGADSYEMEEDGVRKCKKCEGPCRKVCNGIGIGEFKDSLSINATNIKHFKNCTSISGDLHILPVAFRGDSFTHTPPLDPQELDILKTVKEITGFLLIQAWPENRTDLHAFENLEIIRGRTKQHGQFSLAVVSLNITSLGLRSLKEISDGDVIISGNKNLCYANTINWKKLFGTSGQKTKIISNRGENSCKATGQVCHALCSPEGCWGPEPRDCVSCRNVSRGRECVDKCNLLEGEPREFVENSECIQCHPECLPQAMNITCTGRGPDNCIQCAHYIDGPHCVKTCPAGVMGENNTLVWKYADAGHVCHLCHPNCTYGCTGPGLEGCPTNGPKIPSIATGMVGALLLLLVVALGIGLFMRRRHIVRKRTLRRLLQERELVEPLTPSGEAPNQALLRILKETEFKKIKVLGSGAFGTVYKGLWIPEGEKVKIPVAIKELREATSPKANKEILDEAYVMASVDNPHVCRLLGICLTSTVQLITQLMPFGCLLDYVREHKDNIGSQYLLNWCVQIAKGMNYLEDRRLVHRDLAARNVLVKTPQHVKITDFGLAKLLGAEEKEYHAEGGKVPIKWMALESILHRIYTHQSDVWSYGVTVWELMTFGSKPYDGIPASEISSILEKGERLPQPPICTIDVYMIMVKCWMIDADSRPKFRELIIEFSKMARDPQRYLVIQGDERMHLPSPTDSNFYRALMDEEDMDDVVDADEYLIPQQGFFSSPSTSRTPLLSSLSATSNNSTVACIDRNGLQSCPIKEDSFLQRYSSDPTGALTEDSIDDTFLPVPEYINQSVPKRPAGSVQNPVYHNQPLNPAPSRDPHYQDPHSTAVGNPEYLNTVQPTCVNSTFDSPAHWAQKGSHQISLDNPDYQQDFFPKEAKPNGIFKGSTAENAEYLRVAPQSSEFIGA

Row | IC50 (BTK) [nM] | IC50 (EGFR) [nM] | IC50 (LCK) [nM] | Compound
1 | < 100 | < 100 | 100 to 1000 | C=CC(=O)N1CC[C@@H](n2c(Cl)c(-c3ccc(Cl)cc3)c3c(N)ncnc32)C1 [Compound 39, (R)-1-(3-(4-amino-6-chloro-5-(4-chlorophenyl)-7H-pyrrolo[2,3-d]pyrimidin-7-yl)pyrrolidin-1-yl)prop-2-en-1-one]
2 | < 100 | < 100 | 100 to 1000 | C=CC(=O)N1CC[C@@H](n2c(OC)c(-c3ccc(Cl)cc3)c3c(N)ncnc32)C1 [Compound 46, (R)-1-(3-(4-amino-5-(4-chlorophenyl)-6-methoxy-7H-pyrrolo[2,3-d]pyrimidin-7-yl)pyrrolidin-1-yl)prop-2-en-1-one]
3 | < 100 | 1000 to 10000 | 1000 to 10000 | CN(C(=O)/C=C/CN(C)C1CC1)c1cccc(-n2c(Cl)c(-c3ccc(Cl)cc3)c3c(N)ncnc32)c1 [Compound 23, (E)-N-(3-(4-amino-6-chloro-5-(4-chlorophenyl)-7H-pyrrolo[2,3-d]pyrimidin-7-yl)phenyl)-4-(cyclopropyl(methyl)amino)-N-methylbut-2-enamide]
4 | < 100 | 1000 to 10000 | < 100 | CN(C)C/C=C/C(=O)N1CC[C@@H](n2c(Cl)c(-c3ccc(Oc4ccccc4)cc3)c3c(N)ncnc32)C1 [Compound 14, (R,E)-1-(3-(4-amino-6-chloro-5-(4-phenoxyphenyl)-7H-pyrrolo[2,3-d]pyrimidin-7-yl)pyrrolidin-1-yl)-4-(dimethylamino)but-2-en-1-one]
5 | < 100 | 1000 to 10000 | < 100 | CN(C/C=C/C(=O)N1CC[C@@H](n2c(Cl)c(-c3ccc(Oc4ccccc4)cc3)c3c(N)ncnc32)C1)C1CC1 [Compound 8, (R,E)-1-(3-(4-amino-6-chloro-5-(4-phenoxyphenyl)-7H-pyrrolo[2,3-d]pyrimidin-7-yl)pyrrolidin-1-yl)-4-(cyclopropyl(methyl)amino)but-2-en-1-one]
6 | < 100 | 100 to 1000 | 100 to 1000 | CN(C)C/C=C/C(=O)N1CC[C@@H](n2c(Cl)c(-c3ccc(Cl)cc3)c3c(N)ncnc32)C1 [Compound 40, (R,E)-1-(3-(4-amino-6-chloro-5-(4-chlorophenyl)-7H-pyrrolo[2,3-d]pyrimidin-7-yl)pyrrolidin-1-yl)-4-(dimethylamino)but-2-en-1-one]
7 | < 100 | 1000 to 10000 | 1000 to 10000 | COc1cc(-c2c(Cl)n(-c3cccc(N(C)C(=O)/C=C/CN(C)C4CC4)c3)c3ncnc(N)c23)ccc1C [Compound 36, (E)-N-(3-(4-amino-6-chloro-5-(3-methoxy-4-methylphenyl)-7H-pyrrolo[2,3-d]pyrimidin-7-yl)phenyl)-4-(cyclopropyl(methyl)amino)-N-methylbut-2-enamide]
8 | < 100 | < 100 | 100 to 1000 | C=CC(=O)N1CC[C@@H](n2c(F)c(-c3ccc(Cl)cc3)c3c(N)ncnc32)C1 [Compound 42, (R)-1-(3-(4-amino-5-(4-chlorophenyl)-6-fluoro-7H-pyrrolo[2,3-d]pyrimidin-7-yl)pyrrolidin-1-yl)prop-2-en-1-one]
9 | < 100 | 1000 to 10000 | < 100 | Cc1c(-c2ccc(Oc3ccccc3)cc2)c2c(N)ncnc2n1[C@@H]1CCN(C(=O)/C=C/CN(C)C2CC2)C1 [Compound 12, (R,E)-1-(3-(4-amino-6-methyl-5-(4-phenoxyphenyl)-7H-pyrrolo[2,3-d]pyrimidin-7-yl)pyrrolidin-1-yl)-4-(cyclopropyl(methyl)amino)but-2-en-1-one]
10 | < 100 | – | 1000 to 10000 | CN(C/C=C/C(=O)N1CC[C@@H](n2c(Cl)c(-c3ccc(Cl)cc3)c3c(N)ncnc32)C1)C1CC1 [Compound 38, (R,E)-1-(3-(4-amino-6-chloro-5-(4-chlorophenyl)-7H-pyrrolo[2,3-d]pyrimidin-7-yl)pyrrolidin-1-yl)-4-(cyclopropyl(methyl)amino)but-2-en-1-one]
11 | < 100 | < 100 | 100 to 1000 | C=CC(=O)N1CC[C@@H](n2c(C)c(-c3ccc(Cl)cc3)c3c(N)ncnc32)C1 [Compound 44, (R)-1-(3-(4-amino-5-(4-chlorophenyl)-6-methyl-7H-pyrrolo[2,3-d]pyrimidin-7-yl)pyrrolidin-1-yl)prop-2-en-1-one]
12 | < 100 | 1000 to 10000 | < 100 | CN(C)C/C=C/C(=O)N1CC[C@@H](n2c(F)c(-c3ccc(Oc4ccccc4)cc3)c3c(N)ncnc32)C1 [Compound 13, (R,E)-1-(3-(4-amino-6-fluoro-5-(4-phenoxyphenyl)-7H-pyrrolo[2,3-d]pyrimidin-7-yl)pyrrolidin-1-yl)-4-(dimethylamino)but-2-en-1-one]
13 | < 100 | – | – | Cc1c(-c2ccc(Oc3cccc(F)c3)cc2)c2c(N)ncnc2n1[C@@H]1CCN(C(=O)/C=C/CN(C)C2CC2)C1 [Compound 53, (R,E)-1-(3-(4-amino-5-(4-(3-fluorophenoxyl)phenyl)-6-methyl-7H-pyrrolo[2,3-d]pyrimidin-7-yl)pyrrolidin-1-yl)-4-(cyclopropyl(methyl)amino)but-2-en-1-one]
14 | < 100 | – | – | CN(C/C=C/C(=O)N1CC[C@@H](n2c(C3CC3)c(-c3ccc(Oc4ccccc4)cc3)c3c(N)ncnc32)C1)[C@H]1CCOC1 [Compound 95, (E)-1-((R)-3-(4-amino-6-cyclopropyl-5-(4-phenoxyphenyl)-7H-pyrrolo[2,3-d]pyrimidin-7-yl)pyrrolidin-1-yl)-4-(methyl((S)-tetrahydrofuran-3-yl)amino)but-2-en-1-one]
15 | < 100 | 1000 to 10000 | < 100 | CN(C/C=C/C(=O)N1CC[C@@H](n2c(F)c(-c3ccc(Oc4ccccc4)cc3)c3c(N)ncnc32)C1)C1CC1 [Compound 5, (R,E)-1-(3-(4-amino-6-fluoro-5-(4-phenoxyphenyl)-7H-pyrrolo[2,3-d]pyrimidin-7-yl)pyrrolidin-1-yl)-4-(cyclopropyl(methyl)amino)but-2-en-1-one]
16 | < 100 | 1000 to 10000 | < 100 | Cc1c(-c2ccc(Oc3ccccc3)cc2)c2c(N)ncnc2n1[C@@H]1CCN(C(=O)/C=C/CN(C)C)C1 [Compound 15, (R,E)-1-(3-(4-amino-6-methyl-5-(4-phenoxyphenyl)-7H-pyrrolo[2,3-d]pyrimidin-7-yl)pyrrolidin-1-yl)-4-(dimethylamino)but-2-en-1-one]
